Results taken from patent publication US8084602B2, “Porphyrin derivatives and their use in photodynamic therapy” (Destiny Pharma Limited, priority 2002, dated 2011).
Like-named read-outs stand apart in the source and are kept apart here.

What was measured:
[1] = test system: Escherichia coli (strain ATCC 25922); test: Initial screening: growth inhibition after white light illumination; type: cell-based; settings: Escherichia coli
Description: (§1) The toxic effects of exemplary compounds of the invention against two bacterial strains, the Gram negative bacterium Escherichia coli (strain ATCC 25922) and the Gram positive bacterium Staphylococcus aureus (methicillin-resistant strain ATTC BAA-44), were evaluated by measuring the extent of growth inhibition (bacteriostatic effect) and growth […] (cytocidal effect) in the dark and upon light exposure. Initial compound screening was undertaken using white light [390-740 nm] (150 mW/cm^2) for various timepoints of a concentration of 3 μM (see Table 1). Further experiments were undertaken on those compounds identified from this initial screen using a light source emitting light at a wavelength between 417-420 nm at 15.2 mW/cm^2, 13.68 J/cm^2 (Waldmann Eclairage SA, France) (see Table 20.
(§2) The following protocol was used for the initial screening of the exemplary compounds (Table 1) (see Reddi et al., 2002, Photochem. Photobiol. 75(5):462-470): • (i) E. coli and S. aureus cells were grown overnight on brain heart infusion agar, resuspended in brain heart infusion broth, harvested by centrifugation (3000 g for 15 minutes) and washed once with phosphate buffered saline (PBS) at pH 7.4 consisting 2.7 mM KCl and 0.14 M NaCl. • (ii) The cells were then resuspended in PBS to an optical density at 650 nm of 0.7, which corresponds to a density of 10^8 to 10^9 cells/ml. • (iii) Next, the cells were incubated in PBS in the dark for 5 minutes with 3.0 μM of the compound to be tested. • (iv) After dark incubation, cells were illuminated with white light (wavelength: 390 to 740 nm) (150 mW/cm^2) for up to 30 minutes. During illumination, the cells were kept at 37° C. and magnetically stirred. • (v) Finally, treated and untreated (control) cells were diluted in brain heart infusion broth and maintained at […] while the absorbance of the suspension at 650 nm was monitored at predetermined time points for determining growth curves.
(§3) The percent of growth inhibition in the treated cells was calculated by the following equation: [1−(Ax−A0)/(Ac−A0)]×100 where Ax Ac are the absorbances measured after 3 hours incubation, for the treated and control cell suspensions, respectively, and A0 represents the initial absorbance.

[2] = test system: Staphylococcus aureus (methicillin-resistant strain ATTC BAA-44); test: as above; type: cell-based; settings: Staphylococcus aureus
Description: as §1, §2, §3

[3] = test system: intact and abraded rat skin; test: Acute dermal toxicity test (OECD 402); type: in vivo; settings: 3.2 mM topical formulation, 24 hours
Description: The compound was applied to both intact and abraded rat skin for 24 hours.

[4] = Photostability (photobleaching); type: physicochemical; settings: 30 minutes illumination
Excerpt: A bespoke light source capable of delivering light of an appropriate wavelength (417 nm) was developed to activate the test compounds (Waldmann light source 236). […] It consists of a light box (493 mm length×278 mm width×93.3 mm height) where the samples to be tested are placed on the top surface of the light box and illuminated from below.
The photostability of the exemplary compounds was investigated using standard photodynamic procedures. […] The solution was illuminated for various periods: 10, 20 and 30 minutes. After each predetermined illumination period, the absorbance at 404 nm corresponding to the maximum absorption peak of the compound was measured. Parallel experiments were undertaken where the absorbance of Compound 10 solutions that had been kept in the dark for the same time periods as the illumination time periods were measured. Over the 30 minutes period of illumination a small loss in the absorbance value at 404 nm was observed (see FIG. 10A).
The susceptibility of the Compound 10 to photobleaching when subjected to a light at a higher fluence rate (150 mW/cm^2; i.e. ten times that used normally) was investigated. With this illumination system, the solution was kept in a quartz cuvette during illumination while an equivalent solution was kept in the dark.

S. aureus ATCC BAA-44 = test: Photodynamic activity against MRSA on ex vivo porcine skin; type: cell-based, Staphylococcus aureus; settings: 10 μM applied 10 minutes, 15 minutes irradiation, mean of three target areas
Description: Excised porcine skin was cut into 3(4)×3(4) cm^2 pieces under sterile conditions and incubated in 70% ethanol for 5 minutes to reduce background of colonised bacteria. After three washing steps in PBS, the skin pieces were fixed in petri dishes with Hepes-Agar. The epidermis (stratum corneum) was then inoculated with S. aureus ATCC BAA-44 (˜10^8, Volume: 100 μl) and the skin surface dried under laminar flow cabinet until visible dry. The regions of interest were determined using a “pap” pen (1 cm^2 diameter). A sterile solution of Compound 10 (10 μM) was applied onto the skin for 10 minutes. Post application, the ex vivo porcine skin was placed under the Waldmann light source 236 and illuminated for 15 min (15.2 mW/cm^2, 13.7 J/cm^2). A colony forming unit assay was performed to determine viable bacterial cell number immediately after irradiation using a sterile cotton rod to remove bacteria from the stratum corneum. The sterile cotton rod was moistened in sampling solution (0.1% Tween80 in 0.0075 M phosphate buffer pH 7.9) before swabbing the skin surface (3 times) and vortexed in sampling solution before undertaking serial dilutions to determine the bacterial recovery.

[5] = test system: Guinea Pig skin (intact and abraded); test: Photo-toxicity test (OECD 406 based); type: in vivo
Description: Clinical and histological examination of the skin test sites was conducted at 24 and 72 hours post illumination in classical photo-toxicity testing fashion. Biopsies were not done from contiguous sites to prevent any interaction in case of suture. Gross findings were evaluated at the moment of the biopsy. Before giving a score to each endpoint (erythema, oedema and inflammation), data for each subject were compared to the data from the other animals and to control data. A score from 0 to 4 was given for each site and for each endpoint according to the Draize Scale (for inflammation, a scale similar to the Draize Scale was created after microscopic observation of all skin sections, comparing with normal skin and with findings of step-1). A mean score was then calculated for each animal and for each sampling point.

Row | Structure (SMILES) | inhibition at 3 µM ([1]; ATCC25922, 5 min, read-out: Growth inhibition (%), E. coli, 5 min incubation, illumination time 5 min) | inhibition at 3 µM ([1]; ATCC25922, read-out: Growth inhibition (%), E. coli, 5 min incubation, illumination time 0 min) | inhibition at 3 µM ([1]; ATCC25922, read-out: Growth inhibition (%), E. coli, 5 min incubation, illumination time 1 min) | inhibition at 3 µM ([1]; ATCC25922, read-out: Growth inhibition (%), E. coli, 5 min incubation, illumination time 10 min) | inhibition at 3 µM ([1]; ATCC25922, read-out: Growth inhibition (%), E. coli, 5 min incubation, illumination time 15 min) | inhibition at 3 µM ([1]; ATCC25922, read-out: Growth inhibition (%), E. coli, 5 min incubation, illumination time 30 min) | inhibition at 3 µM ([2]; BAA44, 5 min, read-out: Growth inhibition (%), S. aureus, 5 min incubation, illumination time 5 min) | inhibition at 3 µM ([2]; BAA44, read-out: Growth inhibition (%), S. aureus, 5 min incubation, illumination time 0 min) | inhibition at 3 µM ([2]; BAA44, read-out: Growth inhibition (%), S. aureus, 5 min incubation, illumination time 1 min) | inhibition at 3 µM ([2]; BAA44, read-out: Growth inhibition (%), S. aureus, 5 min incubation, illumination time 10 min) | inhibition at 3 µM ([2]; BAA44, read-out: Growth inhibition (%), S. aureus, 5 min incubation, illumination time 15 min) | inhibition at 3 µM ([2]; BAA44, read-out: Growth inhibition (%), S. aureus, 5 min incubation, illumination time 30 min) | Histological toxicology [3] | acute toxic or allergic effect [3] | clinical toxicology [3] | loss in the absorbance value at 404 nm ([4]; 10 μM in phosphate-buffered saline/ethanol, blue light 15 mW/cm^2) | reduction of absorbance caused by photobleaching ([4]; 10 μM, 150 mW/cm^2) | growth reduction (S. aureus ATCC BAA-44) | photo-toxic potential ([5]; 32 μM topical formulation, 24 hours on intact and abraded skin, then 30 minute light exposure, examined 24 and 72 hours post illumination) | damage to the surface of the skin ([5]; 32 μM, in the absence of light)
1 | CN(C)CCC[N+](C)(C)CCCOc1ccc(-c2c3nc(cc4ccc([nH]4)c(-c4ccc(OCCC[N+](C)(C)CCCN(C)C)cc4)c4nc(cc5ccc2[nH]5)C=C4)C=C3)cc1.[Cl-].[Cl-] [Compound 8, 5,15-bis-(4-{3-[(3-Dimethylamino-propyl)-dimethylammonio]-propyloxy}-phenyl)-porphyrin dichloride] | 100% | 23% | 69% | 100% | 100% | 100% | 100% | 80% | 99% | 100% | 100% | 100% |  |  |  |  |  |  |  | 
2 | C[N+](C)(C)CCCOc1ccc(-c2c3nc(cc4ccc([nH]4)c(-c4ccc(OCCC[N+](C)(C)C)cc4)c4nc(cc5ccc2[nH]5)C=C4)C=C3)cc1.[Cl-].[Cl-] [Compound 10, 5,15-bis-[4-(3-Trimethylammonio-propyloxy)-phenyl]-porphyrin dichloride] |  |  |  |  |  |  |  |  |  |  |  |  | No Histological toxicology of any major organ (including the skin) was observed | does not result in any acute toxic or allergic effect | no clinical toxicology was observed | small loss | 15-20% | 3.2 log10 | no clinical signs or symptoms or histological findings that suggested any photo-toxic potential | did not result in any damage to the surface of the skin
